IC50 data for one compound are collected here from patent US8796457B2, “Compound useful for the treatment of degenerative and inflammatory diseases” (Galapagos NV, priority 2009, dated 2014).

The assay concerns the target Recombinant human TYK2 catalytic domain (Homo sapiens (Human), UniProt P29597). As to the kind of experiment: TYK2 inhibition assay. The assay is classed as biochemical. The settings on record: 0.1 μM ATP. Here is the method:
Recombinant human TYK2 catalytic domain (amino acids 871-1187; catalog number 08-147) was purchased from Carna biosciences. 5 ng of TYK2 was incubated with 12.5 μg polyGT substrate (Sigma catalog number P0275) in kinase reaction buffer (25 mM Hepes pH 7.5, 100 mM NaCl, 0.2 mM Na3VO4, 0.1% NP-40, 0.1 μM non-radioactive ATP, 0.125 μCi ^33P-gamma-ATP (GE Healthcare, catalog number AH9968) final concentrations) with or without 5 μL containing test compound or vehicle (DMSO, 1% final concentration), in a total volume of 25 μL, in a polypropylene 96-well plate (Greiner, V-bottom). After 90 min at 30° C., reactions were stopped by adding of 25 μL/well of 150 mM phosphoric acid. […] 40 μL/well of Microscint-20 was added, the top of the plates was sealed and readout was performed using the Topcount (Perkin Elmer). Kinase activity was calculated by subtracting counts per minute (cpm) obtained in the presence of a positive control inhibitor (10 μM staurosporine) from cpm obtained in the presence of vehicle. The ability of a test compound to inhibit this activity was determined as: Percentage inhibition=((cpm determined for sample with test compound present−cpm determined for sample with positive control inhibitor) divided by (cpm determined in the presence of vehicle−cpm determined for sample with positive control inhibitor))*100. […]

Recombinant human TYK2 catalytic domain, sequence (P29597 871-1187): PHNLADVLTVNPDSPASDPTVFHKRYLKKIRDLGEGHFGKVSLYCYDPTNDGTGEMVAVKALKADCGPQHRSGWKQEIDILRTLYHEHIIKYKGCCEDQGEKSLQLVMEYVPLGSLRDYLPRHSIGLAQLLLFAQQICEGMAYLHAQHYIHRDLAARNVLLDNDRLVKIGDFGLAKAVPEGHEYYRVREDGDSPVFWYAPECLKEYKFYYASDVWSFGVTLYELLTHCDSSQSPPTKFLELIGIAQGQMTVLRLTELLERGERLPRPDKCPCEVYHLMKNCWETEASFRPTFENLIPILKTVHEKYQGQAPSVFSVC

As a reminder, the IC50 is the concentration needed to halve the response being measured. Regarding `CC1(C)CN(C(=O)c2ccc(-c3cccc4nc(NC(=O)C5CC5)nn34)cc2)C1` [Compound 1, Cyclopropanecarboxylic acid{5-[4-(3,3-dimethyl-azetidine-1-carbonyl)-phenyl]-[1,2,4]triazolo[1,5-a]pyridin-2-yl}-amide], the IC50 is 219 ± 37 nM.
